“Also recorded” adds a separate entry of the source. Where two headings read alike, the source gives them in different places. Non-standard residues stand in square brackets, D forms with d. Residues, ends and D or L forms follow the SMILES beside them. *: point of attachment. Sta = CC(C)C[C@H](N)[C@@H](O)CC(=O)O; Isovaleryl = CC(C)CC(=O)*
Columns and labels:
[1] = test system: 14 kDa purified ADNF I complex; type: cell-based; details: pre-treatment of ADNF I, 1 μM TTX; for Effect on survival-promoting peak of component II (10^−8 dilution): 1 μM pepstatin A or 10 μg/ml E-64; for Effect on survival-promoting peak of component I (10^−12 dilution) / Effect on survival-promoting peak of component III (10^−5 dilution): 1 μM pepstatin A, 10 μg/ml E-64 or 0.1 mM subtilisin V inhibitor
[2] = test system: component II of the ADNF I complex; assay: Blockade of component II protease activity in cell-free protease assay; type: biochemical; details: 10 μl of pepstatin stock (1 mg/ml methanol, diluted 1:100)
Experimental: FIG. 28. A time course of component II (see FIGS. 26 and 27) in a cell-free protease assay using Bz-Arg-Gly-Phe-Phe-Pro-MβNA, HCl (Cathepsin D substrate). The conditions of the assay are as follows: 10 μl of substrate (5 mg dissolved in 100 μl of DMSO (dimethyl sulfoxide), diluted to 1 ml of water), 10 μl of 10 mM CaCl2; 50 μl of component II (10^−8 dilution of the preparation characterized in FIGS. 26 and 27); and 30 μl of buffer (0.5 M dibasic phosphate, pH 7.8). For this assay, buffer, enzyme, calcium were added to 96 well culture trays. Based on glycoprotein alpha-1 acid standards on NCHO capillary, the optimum protease activity is observed at 1 fM amounts of components II.
FIG. 29. […] In culture wells treated with pepstatin, 10 μl of the stock solution (1 mg dissolved in 1 ml of methanol, diluted 1:100 with water) was added. In control wells, an addition 10 ul of methanol/water (1:100 dilution in water) alone was added. Fluorescence changes indicative of peptide subtract cleavage were monitored as described in FIG. 28.

[3] = test system: dissociated cerebral cortical cultures; type: cell-based, rat

Molecule | Effect on survival-promoting peak of component II (10^−8 dilution) [1] | Effect on survival-promoting peak of component I (10^−12 dilution) [1] | Effect on survival-promoting peak of component III (10^−5 dilution) [1] | Survival-promoting activity of digest peptide fractions (neuronal cell counts) [3] | also measured
CC(C)C[C@H](NC(=O)[C@H]1O[C@@H]1C(=O)O)C(=O)NCCCCN=C(N)N [E-64] | not diminished | inhibited; also recorded: prevented; also recorded: blocked | inhibited; also recorded: prevented; also recorded: blocked |  | 
CC(C)CC(=O)N[C@H](C(=O)N[C@H](C(=O)N[C@@H](CC(C)C)[C@@H](O)CC(=O)N[C@@H](C)C(=O)N[C@@H](CC(C)C)[C@@H](O)CC(=O)O)C(C)C)C(C)C [Pepstatin A] (Isovaleryl-VV[Sta]A[Sta]-OH) | prevented | small decrease | not affected |  | Effect on component II-mediated increases in protease activity [2]: prevent the component II-mediated increases in protease activity; Effect on survival-promoting peak of component II (10^−8 dilution) ([1]; listed as pepstatin A): blocked; Effect on survival-promoting peak of component II (10^−8 dilution) ([1]; listed as peptstatin A): inhibited
C[C@H](NC(=O)OC(C)(C)C)C(=O)N1CCC[C@H]1C(=O)N[C@@H](Cc1ccccc1)C(=O)NOC(=O)c1ccc(Cl)cc1 [subtilisin V inhibitor, Boc-Ala-Pro-Phe-NHO-Bz-pCl] |  | enhanced | enhanced |  | 
GPTADITLTK |  |  |  | Significant increases in neuronal cell counts | 
NNSTTYAPISANVSTALGSTAALPTAAGPV |  |  |  | Significant increases in neuronal cell counts | Another peak of activity (concentration) [3]: 10^−8 M
SESSGTSELLTR |  |  |  | Significant increases in neuronal cell counts | 

— patent US7427590B2, “Neurothrophic components of the ADNF I complex” (The United States of America as represented by the …, priority 2001, dated 2008)
